Activity calls are given as the source filed them. No cut-off for these calls is given here.
Experiments:
[1] = tested on: Mus musculus; assay: Toxicity in ip dosed albino Swiss mouse assessed as effect on spontaneous locomotor activity dosed 60 mins before test measured for 1 min 15 secs by M3 multichannel activity test; type: organism-based; details: in vivo
[2] = molecular target: T1, Muscarinic acetylcholine receptor M1 (Homo sapiens) (UniProt P11229); assay: Binding affinity to muscarinic acetylcholine receptor M1 (unknown origin) at 1 uM
T1 sequence (whole entry): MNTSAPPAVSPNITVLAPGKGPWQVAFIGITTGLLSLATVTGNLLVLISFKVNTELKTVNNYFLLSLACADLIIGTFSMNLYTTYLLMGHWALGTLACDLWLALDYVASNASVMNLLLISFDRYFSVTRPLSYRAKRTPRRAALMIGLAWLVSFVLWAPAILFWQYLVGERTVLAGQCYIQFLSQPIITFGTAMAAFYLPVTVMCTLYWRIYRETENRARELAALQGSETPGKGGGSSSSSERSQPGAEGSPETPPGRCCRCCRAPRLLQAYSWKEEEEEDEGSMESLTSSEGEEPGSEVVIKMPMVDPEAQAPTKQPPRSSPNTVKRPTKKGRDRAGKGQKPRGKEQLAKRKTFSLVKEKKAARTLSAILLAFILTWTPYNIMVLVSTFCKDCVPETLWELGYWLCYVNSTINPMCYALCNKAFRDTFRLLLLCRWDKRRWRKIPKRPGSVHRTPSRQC

[3] = molecular target: T2, Adrenergic receptor alpha-1 (Rattus norvegicus, UniProt P15823+P23944+P43140); assay: Displacement of [3H]-Prazosin from alpha-1 adrenergic receptor in rat cerebral cortex after 1 hr by microplate reader based assay; type: tissue-based
T2 sequence (P15823 whole entry): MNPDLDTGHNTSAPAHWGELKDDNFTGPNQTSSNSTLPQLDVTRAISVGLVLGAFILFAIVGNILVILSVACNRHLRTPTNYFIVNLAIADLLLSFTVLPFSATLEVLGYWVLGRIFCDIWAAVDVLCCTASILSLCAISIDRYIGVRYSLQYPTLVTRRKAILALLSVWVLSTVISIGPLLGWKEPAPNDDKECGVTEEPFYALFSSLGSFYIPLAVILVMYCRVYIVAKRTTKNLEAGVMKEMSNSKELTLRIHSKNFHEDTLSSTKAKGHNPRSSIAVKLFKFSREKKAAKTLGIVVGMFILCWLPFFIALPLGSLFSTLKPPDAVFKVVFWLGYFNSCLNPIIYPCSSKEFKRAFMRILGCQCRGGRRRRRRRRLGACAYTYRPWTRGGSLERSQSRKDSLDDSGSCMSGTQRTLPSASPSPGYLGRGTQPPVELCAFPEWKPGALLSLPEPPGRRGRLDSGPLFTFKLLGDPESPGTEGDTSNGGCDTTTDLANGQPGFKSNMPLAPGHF
T2 sequence (P23944 whole entry): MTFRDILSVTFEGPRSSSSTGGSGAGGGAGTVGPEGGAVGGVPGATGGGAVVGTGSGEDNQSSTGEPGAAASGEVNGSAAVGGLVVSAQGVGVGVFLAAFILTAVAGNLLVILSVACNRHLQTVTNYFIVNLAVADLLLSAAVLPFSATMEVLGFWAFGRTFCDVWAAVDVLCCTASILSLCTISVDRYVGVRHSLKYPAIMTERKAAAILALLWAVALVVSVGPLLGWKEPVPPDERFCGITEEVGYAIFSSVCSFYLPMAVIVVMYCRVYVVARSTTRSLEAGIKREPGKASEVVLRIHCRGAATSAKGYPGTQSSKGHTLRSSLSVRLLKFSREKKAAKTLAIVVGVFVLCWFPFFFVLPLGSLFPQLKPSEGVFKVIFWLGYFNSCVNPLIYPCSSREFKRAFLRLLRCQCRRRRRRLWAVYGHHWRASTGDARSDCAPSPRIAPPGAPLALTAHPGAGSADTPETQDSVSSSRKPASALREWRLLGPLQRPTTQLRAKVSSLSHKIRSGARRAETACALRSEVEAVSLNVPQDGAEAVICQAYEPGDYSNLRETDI
T2 sequence (P43140 whole entry): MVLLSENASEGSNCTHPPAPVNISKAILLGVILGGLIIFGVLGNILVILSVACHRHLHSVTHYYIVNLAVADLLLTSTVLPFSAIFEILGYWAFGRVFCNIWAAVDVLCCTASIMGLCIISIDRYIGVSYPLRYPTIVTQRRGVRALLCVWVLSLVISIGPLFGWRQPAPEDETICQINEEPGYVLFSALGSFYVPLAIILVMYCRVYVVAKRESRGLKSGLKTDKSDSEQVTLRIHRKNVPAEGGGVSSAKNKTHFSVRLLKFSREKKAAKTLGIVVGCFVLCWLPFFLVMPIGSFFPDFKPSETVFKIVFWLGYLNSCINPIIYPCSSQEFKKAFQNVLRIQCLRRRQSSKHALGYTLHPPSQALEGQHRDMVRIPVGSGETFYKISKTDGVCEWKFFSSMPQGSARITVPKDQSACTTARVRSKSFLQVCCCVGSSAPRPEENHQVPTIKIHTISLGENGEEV

[4] = molecular target: 5-hydroxytryptamine receptor 6 (Homo sapiens, UniProt P50406); assay: Displacement of [3H]-LSD from human serotonin 5-HT6 receptor expressed in HEK293 cells after 1 hr by microplate reader based assay; type: cell-based
[5] = tested on: Rattus norvegicus; assay: Pro-cognitive effect in Sprague-Dawley rat assessed as reduction in PCP-induced memory deficits administered ip 1 hr 15 mins before familiarization phase by novel object recognition test; type: functional, organism-based
[6] = molecular target: T3, 5-hydroxytryptamine receptor 7 (Homo sapiens, UniProt P34969); assay: Antagonist activity at human serotonin 5-HT7B receptor expressed in CHO cells assessed as inhibition of serotonin-induced cAMP production after 30 mins by HTRF assay; type: functional, cell-based
[7] = molecular target: Histamine H1 receptor (Homo sapiens) (UniProt P35367); assay: Binding affinity to histamine H1 receptor (unknown origin) at 1 uM
[8] = tested on: Mus musculus; assay: Toxicity in albino Swiss mouse assessed as effect on spontaneous locomotor activity at 5 mg/kg, ip dosed 60 mins before test measured for 2 to 6 mins by M3 multichannel activity test; type: organism-based; details: in vivo
[9] = molecular target: Beta-1 adrenergic receptor (Homo sapiens) (UniProt P08588); assay: Binding affinity to beta-1 adrenergic receptor (unknown origin) at 1 uM
[10] = molecular target: D(2) dopamine receptor (Homo sapiens, UniProt P14416); assay: Displacement of [3H]-Raclopride from human dopamine D2L receptor expressed in HEK293 cells after 1 hr by microplate reader based assay; type: cell-based
[11] = molecular target: T3, 5-hydroxytryptamine receptor 7; assay: Antagonist activity at human 5-HT7B receptor expressed in HEK293 cells assessed as inhibition of 5-carboxyamidotryptamine-induced cAMP production after 30 mins by TR-FRET assay; type: functional, cell-based
[12] = molecular target: T4, 5-hydroxytryptamine receptor 1A (Homo sapiens, UniProt P08908); assay: Displacement of [3H]-8-OH-DPAT from human serotonin 5-HT1A receptor expressed in HEK293 cells after 1 hr by microplate reader based assay; type: cell-based
T4 sequence (P08908 whole entry): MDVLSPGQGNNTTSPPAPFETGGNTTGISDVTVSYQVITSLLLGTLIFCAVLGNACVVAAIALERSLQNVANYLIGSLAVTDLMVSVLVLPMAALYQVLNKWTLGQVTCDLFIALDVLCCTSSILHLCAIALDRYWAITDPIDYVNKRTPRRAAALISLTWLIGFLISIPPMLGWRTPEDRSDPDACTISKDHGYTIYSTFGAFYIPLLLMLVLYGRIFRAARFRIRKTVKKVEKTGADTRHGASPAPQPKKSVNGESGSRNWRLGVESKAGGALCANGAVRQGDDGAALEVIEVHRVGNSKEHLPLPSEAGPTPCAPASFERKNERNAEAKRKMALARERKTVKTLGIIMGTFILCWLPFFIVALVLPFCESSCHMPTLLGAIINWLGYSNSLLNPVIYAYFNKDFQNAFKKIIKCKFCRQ

[13] = tested on: HEK293; assay: Selectivity ratio of Ki for human 5-HT1A receptor to Ki for human 5-HT7B receptor expressed in HEK293 cells; type: cell-based
[14] = molecular target: T3, 5-hydroxytryptamine receptor 7; assay: Displacement of [3H]-5-carboxyamidotryptamine from human serotonin 5-HT7B receptor expressed in HEK293 cells after 1 hr by microplate reader based assay; type: cell-based
[15] = molecular target: T3, 5-hydroxytryptamine receptor 7; assay: Antagonist activity at human serotonin 5-HT7B receptor expressed in CHO cells assessed as inhibition of serotonin-induced cAMP production at 1 uM after 30 mins by HTRF assay relative to control; type: functional, cell-based
[16] = tested on: Mus musculus; assay: Antidepressant-like activity in albino Swiss mouse assessed as reduction in immobility time at 10 mg/kg, ip dosed 60 mins before test by forced swim test; type: functional
[17] = tested on: Mus musculus; assay: Toxicity in albino Swiss mouse assessed as effect on spontaneous locomotor activity at 1.25 mg/kg, ip dosed 60 mins before test measured for 1 min 15 secs by M3 multichannel activity test; type: organism-based; details: in vivo
[18] = tested on: Mus musculus; assay: Anxiolytic-like activity in albino Swiss mouse assessed as increase in number of punished crossings at 1.25 mg/kg, ip dosed 60 mins before test by four plate test; type: functional
[19] = tested on: Mus musculus; assay: Toxicity in albino Swiss mouse assessed as effect on spontaneous locomotor activity at 2.5 mg/kg, ip dosed 60 mins before test measured for 2 to 6 mins by M3 multichannel activity test; type: organism-based; details: in vivo

D(2) dopamine receptor, sequence (P14416 whole entry): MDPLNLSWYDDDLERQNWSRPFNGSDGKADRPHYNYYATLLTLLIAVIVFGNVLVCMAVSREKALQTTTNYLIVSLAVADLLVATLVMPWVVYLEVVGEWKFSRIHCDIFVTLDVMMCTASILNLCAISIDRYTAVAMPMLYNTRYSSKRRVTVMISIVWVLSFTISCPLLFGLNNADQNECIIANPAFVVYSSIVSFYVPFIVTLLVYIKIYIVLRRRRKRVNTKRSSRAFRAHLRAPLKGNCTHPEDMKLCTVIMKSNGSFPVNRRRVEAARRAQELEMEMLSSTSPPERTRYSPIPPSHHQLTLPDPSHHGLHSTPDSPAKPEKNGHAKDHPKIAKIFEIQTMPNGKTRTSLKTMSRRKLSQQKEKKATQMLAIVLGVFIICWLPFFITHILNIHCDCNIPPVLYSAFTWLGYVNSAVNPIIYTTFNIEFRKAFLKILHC
5-hydroxytryptamine receptor 6, sequence (P50406 whole entry): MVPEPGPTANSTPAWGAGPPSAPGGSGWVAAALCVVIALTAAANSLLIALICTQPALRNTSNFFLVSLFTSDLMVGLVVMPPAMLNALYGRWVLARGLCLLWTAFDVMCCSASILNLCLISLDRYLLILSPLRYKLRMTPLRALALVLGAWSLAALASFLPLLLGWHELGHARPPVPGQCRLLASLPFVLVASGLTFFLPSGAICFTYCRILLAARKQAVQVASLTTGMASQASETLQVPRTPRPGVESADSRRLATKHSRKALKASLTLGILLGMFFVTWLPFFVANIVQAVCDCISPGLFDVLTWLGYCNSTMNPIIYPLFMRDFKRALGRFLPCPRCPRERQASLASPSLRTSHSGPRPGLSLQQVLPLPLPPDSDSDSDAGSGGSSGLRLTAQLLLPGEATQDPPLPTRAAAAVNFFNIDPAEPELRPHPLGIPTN
T3 sequence (P34969 whole entry): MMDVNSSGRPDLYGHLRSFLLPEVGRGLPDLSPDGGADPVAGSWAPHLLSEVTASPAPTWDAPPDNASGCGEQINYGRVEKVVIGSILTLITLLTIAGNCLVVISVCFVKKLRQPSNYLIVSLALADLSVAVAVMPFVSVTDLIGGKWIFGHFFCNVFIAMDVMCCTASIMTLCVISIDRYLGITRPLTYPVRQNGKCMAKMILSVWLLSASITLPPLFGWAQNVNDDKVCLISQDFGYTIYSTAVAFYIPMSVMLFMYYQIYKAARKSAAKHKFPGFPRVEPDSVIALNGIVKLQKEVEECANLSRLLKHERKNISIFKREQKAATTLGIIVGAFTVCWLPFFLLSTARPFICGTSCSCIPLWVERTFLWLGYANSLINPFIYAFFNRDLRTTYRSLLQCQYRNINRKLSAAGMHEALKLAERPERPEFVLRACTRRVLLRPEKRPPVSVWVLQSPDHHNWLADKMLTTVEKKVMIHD
Beta-1 adrenergic receptor (Homo sapiens), sequence (P08588 whole entry, looked up): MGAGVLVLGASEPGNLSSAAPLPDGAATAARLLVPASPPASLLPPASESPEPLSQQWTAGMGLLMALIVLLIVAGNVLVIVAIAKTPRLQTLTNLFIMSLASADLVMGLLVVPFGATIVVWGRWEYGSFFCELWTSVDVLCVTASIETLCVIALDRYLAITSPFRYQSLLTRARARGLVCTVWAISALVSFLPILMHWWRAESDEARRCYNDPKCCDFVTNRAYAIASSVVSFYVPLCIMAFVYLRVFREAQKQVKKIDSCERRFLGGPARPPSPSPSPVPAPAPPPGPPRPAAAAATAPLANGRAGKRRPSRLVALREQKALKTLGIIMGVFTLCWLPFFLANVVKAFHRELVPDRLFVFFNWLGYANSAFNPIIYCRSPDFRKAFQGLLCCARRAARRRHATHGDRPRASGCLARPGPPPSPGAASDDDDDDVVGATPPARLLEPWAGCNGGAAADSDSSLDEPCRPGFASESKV
Histamine H1 receptor (Homo sapiens), sequence (P35367 whole entry): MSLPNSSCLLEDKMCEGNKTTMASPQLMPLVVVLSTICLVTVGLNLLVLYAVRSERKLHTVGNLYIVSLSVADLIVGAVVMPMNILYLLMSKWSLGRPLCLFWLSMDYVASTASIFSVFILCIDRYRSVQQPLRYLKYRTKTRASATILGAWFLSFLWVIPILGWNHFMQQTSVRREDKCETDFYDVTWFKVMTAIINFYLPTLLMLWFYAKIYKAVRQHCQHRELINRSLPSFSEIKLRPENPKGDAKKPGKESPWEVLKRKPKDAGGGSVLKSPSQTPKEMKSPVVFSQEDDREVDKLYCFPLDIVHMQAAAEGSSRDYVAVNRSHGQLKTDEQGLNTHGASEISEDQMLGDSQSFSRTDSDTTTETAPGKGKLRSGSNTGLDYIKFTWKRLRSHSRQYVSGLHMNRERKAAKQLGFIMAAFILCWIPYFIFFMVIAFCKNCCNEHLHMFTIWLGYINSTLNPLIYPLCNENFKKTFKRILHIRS

Structure (SMILES)	Ki [12] [nM]	Ratio Ki [13]	Ki [14] [nM]	further results
CC(C)c1ccccc1OCCN1CCC(NS(=O)(=O)c2ccccc2F)CC1				Activity [1]: Non-toxic; Activity [2]: < 10%; Ki [3]: 629 nM; Ki [4]: 240 nM; Activity [5]: Dose-dependent effect; Kb [6]: 1 nM; Activity [7]: < 74%; Activity [8]: Non-toxic; Activity [9]: < 10%; Ki [10]: 51 nM; Kb [11]: 12 nM
CC(C)c1ccccc1OCCN1CCC(NS(=O)(=O)c2ccc(F)c(F)c2)CC1	373	14	28	
CC(C)c1ccccc1OCCN1CCC(NS(=O)(=O)c2cc(F)ccc2F)CC1	208	26	8	Ki [3]: 589 nM; Ki [4]: 324 nM; inhibition [15]: 84%; Activity [16]: Active; Ki [10]: 147 nM
O=S(=O)(NC1CCN(CCOc2ccccc2-c2ccccc2)CC1)c1cccc(F)c1	368	10	36	
O=S(=O)(NC1CCN(CCOc2ccccc2-c2ccccc2)CC1)c1ccc(F)cc1	159	23	7	
CC(C)c1ccccc1OCCN1CCC(NS(=O)(=O)c2cnn(C)c2)CC1	616	32	19	Ki [3]: 389 nM; Ki [4]: 641 nM; inhibition [15]: 85%; Ki [10]: 140 nM
O=S(=O)(NC1CCN(CCOc2ccccc2-c2ccccc2)CC1)c1cccc(Cl)c1	234	33	6	Ki [3]: 2019 nM; Ki [4]: 276 nM; Activity [5]: Dose-dependent effect; inhibition [15]: 95%; Ki [10]: 85 nM
O=S(=O)(NC1CCN(CCOc2ccccc2-c2ccccc2)CC1)c1ccc(Cl)s1	190	16		
CC(C)c1ccccc1OCCN1CCC(NS(=O)(=O)c2cncc3ccccc23)CC1	103	5	21	
CC(C)c1ccccc1OCCN1CCC(NS(=O)(=O)c2ccccc2)CC1	249	6	42	
O=S(=O)(NC1CCN(CCOc2ccccc2-c2ccccc2)CC1)c1cc(F)ccc1F	183	26	7	
CC(C)CS(=O)(=O)NC1CCN(CCOc2ccccc2C(C)C)CC1	278	1	200	
O=S(=O)(NC1CCN(CCOc2ccccc2-c2ccccc2)CC1)c1ccc(F)c(F)c1		45		Ki [3]: 2541 nM
CC(C)c1ccccc1OCCN1CCC(NS(=O)(=O)c2ccc(Cl)s2)CC1	455	19	24	
CC(C)CS(=O)(=O)NC1CCN(CCOc2ccccc2-c2ccccc2)CC1	74	2	44	
O=S(=O)(NC1CCN(CCOc2ccccc2-c2ccccc2)CC1)c1cccc2ncccc12	102	13	8	
Cn1cc(S(=O)(=O)NC2CCN(CCOc3ccccc3-c3ccccc3)CC2)cn1	321	17	19	
O=S(=O)(NC1CCN(CCOc2ccccc2-c2ccccc2)CC1)c1cncc2ccccc12	74	8	9	
O=S(=O)(NC1CCN(CCOc2ccccc2-c2ccccc2)CC1)c1ccccc1	279	6	49	
CC(C)c1ccccc1OCCN1CCC(NS(=O)(=O)c2cccc3ncccc23)CC1	232	33	7	Ki [3]: 712 nM; Ki [4]: 233 nM; Activity [5]: Dose-dependent effect; inhibition [15]: 96%; Ki [10]: 104 nM
CC(C)c1ccccc1OCCN1CCC(NS(=O)(=O)c2cccc(Cl)c2)CC1	178	22	8	
CC(C)c1ccccc1OCCN1CCC(NS(=O)(=O)c2cccc(F)c2)CC1	356		9	Activity [2]: < 10%; Activity [17]: Non-toxic; Activity [18]: 75%; Ki [4]: 471 nM; Activity [19]: Non-toxic; Activity [5]: Dose-dependent effect; Activity [7]: < 74%; Activity [9]: < 10%; Ki [10]: 102 nM; Kb [11]: 26 nM

— ChEMBL document CHEMBL3739404, “Arylsulfonamide derivatives of (aryloxy)ethylpiperidines as selective 5-HT7receptor antagonists and their psychotropic properties” (Medchemcomm, 2015)
